IC50 data for 1 compound are collected here from BindingDB's records for doi:10.1021/acs.jmedchem.9b01033 (Taipei Medical University, 2020).

The assay in a line: Inhibition of CFD in 10% human serum assessed as reduction in alternate complement pathway-mediated hemolysis incubated for 1 hr.

Each structure is given as a SMILES string.

Take `C[C@H](NC(=O)[C@@H]1C[C@H]2C[C@H]2N1C(=O)Cn1nc(C(N)=O)c2cccnc21)c1cccc(Cl)c1F`: the IC50 amounted to 6 nM.
